{"source": "patent US9034826B2", "about": "“Use of epidermal growth factor for the morphofunctional restoration of peripheral nerves in diabetic neuropathy” (Centro de Ingenieria Genetica y Biotecnologia, priority 2006, dated 2015)", "type_in_all_cases": "in vivo, Wistar rats", "key": {"diabetic rats [1]": {"system": "diabetic rats", "test": "Motor conduction velocity, sciatic-tibial route, prevention study (Example 1)", "details": "75 μg EGF/ml, day 60", "method": "(§1) Male Wistar, with 200-250 grams of body weight, received a subcutaneous injection of streptozotocin, at 75 mg/kg in sodium citrate buffer. Water was then replaced by a 10% sucrose solution during the next 24 h, to prevent deaths caused by hypoglycemia. Glucose levels in blood were monitored every morning during the next 72 hours after the injection. Only animals with sustained glucose values above 15 mmol/L were used. Rats were housing at 4 per cage and fed in the conventional way. A concurrent group of other 80 rats received citrate buffer without streptozotocin and was handled in a similar fashion to the diabetic group. The average value for glycemia during the 72 hours in this group was 5.87 mmol/L.\n(§2) All treatments were conducted during 8 weeks, starting one week after streptozotocin injection. The composition used contained 75 μg of human recombinant EGF/ml. Several types of observations were conducted in the animals under study:\nFifteen animals were used in each experimental group. In diabetic neuropathy conduction velocity is generally diminished.\n(§3) Distal supra-maximal stimulation in the sciatic-tibial route using bipolar electrodes is was used to study motor conduction. Determination of the conduction velocity in the sensory routes was carried out by applying a stimulus at a proximal point in the tail and measure it 3 cm away."}, "sciatic nerve": {"system": "sciatic nerve", "test": "Histomorphometric study on fragments of the sciatic nerve, prevention study (Example 1)", "details": "day 70 after induction of diabetes; for Number of blood vessels: 10 microscopic fields", "method": "as §1, §2\nOnce the treatment was concluded, animals were sacrificed at day 70 after induction of diabetes, 10 days after the last dose was given, and the analysis described above is was completed. Animals were sacrificed by an overdose of anesthesia and perfused with saline buffer pH 7.4. A total of ten animals per experimental group were included for histomorphometric studies, and an equivalent number of rats were used for biochemical determinations. In both systems the sciatic nerves from both limbs were dissected; fragments were kept at −70° C. until processed. The samples taken for histological and/or histomorphometric studies were stained with hematoxilin/eosin and toluidine blue. At least five fragments of the same nerve were quantitatively studied using MADIP program. The fragments were included in blocks of celloidine and gelatin, and those blocks were horizontal and transversally sliced. The following histological indicators were evaluated: • Total number of blood vessels (in epineural/perineural) in 10 microscopic fields using 10× as constant magnification in longitudinal cuts of the nerve. • Percentage of demyelinated fibers. Evaluated by averaging the values per microscopic field (×20, at least five fields). • Percentage of myelin or non-myelin fibers with lesions (dilated or distorted) per microscopic field (×20, at least five fields). • Percentage of endoneurial collagenization (moderated: 25 to 50%; severe: more than 50% of the endoneurial area in transversal slices, and at least three different sections."}, "diabetic rats [2]": {"system": "diabetic rats", "test": "Sensory conduction velocity, reversion study (Example 2)", "details": "established diabetic neuropathy, 100 μg EGF in 1 ml i.p. 3 days a week for one month, day 120 after induction of diabetes", "method": "as §3\n(§4) The aim of this study was to evaluate the neurorestoration effect of the pharmaceutical composition. Male Wistar rats between 200-250 grams of body is weight received a subcutaneous injection of streptozotocin at 75 mg/kg in sodium citrate buffer, and were allowed to evolve until 120 days after disease induction. All rats used in this experiment had shown sustained glucose levels above 15 mmol/L. Animals were handled and fed as previously described. A concurrent control group was set, where animals received saline instead of streptozotocin. […] After this period an electrophysiological characterization of all rats were done and animals were split in two random treatment groups:\n(§5) Group II. Animals received the pharmaceutical composition with 100 μg of EGF in 1 ml, 3 days a week, by intraperitoneal route.\nTo check the effect of the pharmaceutical composition on the restoration of sensory and motor fibers the conduction velocity of an electric impulse was measured at day 120 after induction of diabetes, after treating the animals with the pharmaceutical composition or saline. […]"}, "right sciatic nerve": {"system": "right sciatic nerve", "test": "Laser Doppler Perfusion Imaging of blood perfusion of a peripheral nerve, reversion study (Example 2)", "details": "established diabetic neuropathy, 100 μg EGF in 1 ml i.p. 3 days a week for one month", "from_the_text": "The right sciatic nerve of rats was used as a model. Ten animals were included for each one of the experimental groups. A similar number of non diabetic rats were used to calculate the reference values. A Laser Doppler Perfusion Imaging (LDPI) system was used. Data of perfusion in peripheral tissues to the nerve were programmed as zero values. Control animals received saline during two months before the measurement. All determinations were done under the same conditions of anesthesia and environmental conditions. They are reflected in Table 5. The aim of this study was to evaluate the neurorestoration effect of the pharmaceutical composition. Male Wistar rats between 200-250 grams of body is weight received a subcutaneous injection of streptozotocin at 75 mg/kg in sodium citrate buffer, and were allowed to evolve until 120 days after disease induction. All rats used in this experiment had shown sustained glucose levels above 15 mmol/L. Animals were handled and fed as previously described. A concurrent control group was set, where animals received saline instead of streptozotocin. […] After this period an electrophysiological characterization of all rats were done and animals were split in two random treatment groups: Group II. Animals received the pharmaceutical composition with 100 μg of EGF in 1 ml, 3 days a week, by intraperitoneal route. […]"}, "Lipoprotein Lipase (LPL)": {"system": "Lipoprotein Lipase (LPL)", "test": "Lipoprotein lipase (LPL) enzymatic activity in sciatic nerve fragments, reversion study (Example 2)", "details": "established diabetic neuropathy, 100 μg EGF in 1 ml i.p. 3 days a week for one month", "method": "Fragments of the nerve from each animal were incubated together with 3 μg/ml heparin in Krebs-Ringer buffer at 37° C. for 50 minutes. Aliquots from these samples were then incubated in the presence of [^14C] triolein-phosphatidylcholine. ^14C labeled fatty acids were quantified by the classic methods. LPL activity was expressed in nanomoles of released fatty acids (RFA) per minute and gram of tissue.\nas §4, §5\nThe aim of this study was to compare the LPL enzymatic activity after one month of treatment with EGF containing composition, as compared to saline treated diabetic animals. […]"}, "[3]": {"details": "Treatment group 1 (once weekly i.p., 8 weeks)"}, "[4]": {"details": "Treatment group 3 (three times a week i.p., 8 weeks)"}}}
{"substance": "EGF containing pharmaceutical composition: Composition with human recombinant EGF: 75 μg/ml in Example 1, 100 μg in 1 ml in Example 2, given intraperitoneally", "values": [{"measurement": "MCV (motor conduction velocity)", "setting": "diabetic rats [1]; 1 ml i.p. once weekly (Treatment group 1)", "value": "45 ± 13", "unit": "m/s"}, {"measurement": "MCV (motor conduction velocity)", "setting": "diabetic rats [1]; 1 ml i.p. three times a week (Treatment group 3)", "value": "56 ± 11", "unit": "m/s"}, {"measurement": "Number of blood vessels", "setting": "sciatic nerve; [3]", "value": "111.33 ± 14.5"}, {"measurement": "% of collagenized area", "setting": "sciatic nerve; [3]", "value": "42.69 ± 14.71", "unit": "%"}, {"measurement": "% of demyelinated fibers", "setting": "sciatic nerve; [3]", "value": "51.2 ± 17.94", "unit": "%"}, {"measurement": "% of fibers with lesions", "setting": "sciatic nerve; [3]", "value": "60.12 ± 11", "unit": "%"}, {"measurement": "Number of blood vessels", "setting": "sciatic nerve; [4]", "value": "158.6 ± 26.12"}, {"measurement": "% of collagenized area", "setting": "sciatic nerve; [4]", "value": "13.45 ± 11.82", "unit": "%"}, {"measurement": "% of demyelinated fibers", "setting": "sciatic nerve; [4]", "value": "35.56 ± 12.18", "unit": "%"}, {"measurement": "% of fibers with lesions", "setting": "sciatic nerve; [4]", "value": "41.38 ± 10.26", "unit": "%"}, {"measurement": "Velocity (sensitive conduction velocity, SCV)", "setting": "diabetic rats [2]", "value": "59.42 ± 3.35", "unit": "m/s"}, {"measurement": "Laser Doppler perfusion of the sciatic nerve", "setting": "right sciatic nerve", "value": "934 ± 60.18", "unit": "LDPI Units"}, {"measurement": "LPL activity in the sciatic nerve", "setting": "Lipoprotein Lipase (LPL)", "value": "6.29 ± 1.67", "unit": "nmoles AGL/min/g"}]}
